From the supplement of paper PMC10627819

Assays:
[1] = system: B. subtilis 168; assay: fitness (endpoint OD595 vs no drug) (fraction); higher = more growth
Summary of the method: (§1)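 Cultures at OD595 0.01 were dispensed into 384-well plates in TSB, LB Lennox or CY and incubated at 37 °C. Every 30 min for 14 h, OD595 was read and corrected by the first reading. Fitness is the optical density at entry into stationary phase relative to the robust mean of no-drug control wells, capped at 1.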

[2] = system: S. pneumoniae D39V; assay: as above
Summary of the method: as §1

[3] = system: S. aureus DSM 20231; assay: as above
Summary of the method: as §1

[4] = system: B. subtilis 168; assay: Bliss interaction score (quartile over a dose matrix) (fitness difference); higher = more antagonism (negative = synergy)
Summary of the method: (§2)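 Growth was read as OD595 when cultures entered stationary phase, and each value was divided by the plate's robust no-drug mean and capped at 1. This normalised ratio is the fitness value, and fitness for each single drug came from the combination data. The Bliss score subtracts the expected fitness, taken as the product, from the observed fitness and is given as quartiles across technical, biological and donor/recipient replicates.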

[5] = system: S. pneumoniae D39V; assay: as above
Summary of the method: as §2

[6] = system: S. aureus Newman; assay: as above
Summary of the method: as §2

[7] = system: S. aureus DSM 20231; assay: as above
Summary of the method: as §2
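Throughout, for Bliss interaction score (quartile over a dose matrix): first quartile when negative (synergy) and third quartile when positive (antagonism).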

CO/N=C(\C(=O)N[C@@H]1C(=O)N2C(C(=O)O)=C(COC(C)=O)CS[C@H]12)c1csc(N)n1 [Cefotaxime] + CC(=O)NC[C@H]1CN(c2ccc(N3CCOCC3)c(F)c2)C(=O)O1 [Linezolid]
one replicate
Settings	fitness
[1], first compound 0.00775 µg/mL, partner 0.125 µg/mL	0.688
[1], first compound 0.00775 µg/mL, partner 0.25 µg/mL	0.141
[1], first compound 0.00775 µg/mL, partner 0.5 µg/mL	0.0663
[1], first compound 0.0155 µg/mL, partner 0.125 µg/mL	0.495
[1], first compound 0.0155 µg/mL, partner 0.25 µg/mL	0.0491
[1], first compound 0.0155 µg/mL, partner 0.5 µg/mL	0.0426
[1], first compound 0.031 µg/mL, partner 0.125 µg/mL	0.462
[1], first compound 0.031 µg/mL, partner 0.25 µg/mL	0.0621
[1], first compound 0.031 µg/mL, partner 0.5 µg/mL	0.0534
[1], first compound 0.0625 µg/mL, partner 0.0625 µg/mL	0.553
[1], first compound 0.0625 µg/mL, partner 0.125 µg/mL	0.327
[1], first compound 0.0625 µg/mL, partner 0.25 µg/mL	0.0561
[1], first compound 0.125 µg/mL, partner 0.0625 µg/mL	0.413
[1], first compound 0.125 µg/mL, partner 0.125 µg/mL	0.216
[1], first compound 0.125 µg/mL, partner 0.25 µg/mL	0.0505
[1], first compound 0.25 µg/mL, partner 0.0625 µg/mL	0.308
[1], first compound 0.25 µg/mL, partner 0.125 µg/mL	0.189
[1], first compound 0.25 µg/mL, partner 0.25 µg/mL	0.0533
[3], first compound 0.039 µg/mL, partner 1 µg/mL	0.0567
[3], first compound 0.078 µg/mL, partner 1 µg/mL	0.0664
[3], first compound 0.156 µg/mL, partner 1 µg/mL	0.0626
[3], first compound 0.312 µg/mL, partner 0.125 µg/mL	0.658
[3], first compound 0.312 µg/mL, partner 0.25 µg/mL	0.545
[3], first compound 0.312 µg/mL, partner 0.5 µg/mL	0.342

Settings	fitness
[1], first compound 0.5 µg/mL, partner 0.125 µg/mL	0.298
[1], first compound 0.5 µg/mL, partner 0.25 µg/mL	0.0555
[1], first compound 0.5 µg/mL, partner 0.5 µg/mL	0.0506
[1], first compound 1 µg/mL, partner 0.125 µg/mL	0.218
[1], first compound 1 µg/mL, partner 0.25 µg/mL	0.0513
[1], first compound 1 µg/mL, partner 0.5 µg/mL	0.0306
[1], first compound 2 µg/mL, partner 0.125 µg/mL	0.114
[1], first compound 2 µg/mL, partner 0.25 µg/mL	0.0572
[1], first compound 2 µg/mL, partner 0.5 µg/mL	0.0482
[2], first compound 0.0018 µg/mL, partner 0.105 µg/mL	0.913
[2], first compound 0.0018 µg/mL, partner 0.2 µg/mL	0.642
[2], first compound 0.0018 µg/mL, partner 0.21 µg/mL	0.807
[2], first compound 0.0018 µg/mL, partner 0.4 µg/mL	0.633
[2], first compound 0.0018 µg/mL, partner 0.42 µg/mL	0.643
[2], first compound 0.0018 µg/mL, partner 0.8 µg/mL	0.238
[2], first compound 0.0035 µg/mL, partner 0.105 µg/mL	0.905
[2], first compound 0.0035 µg/mL, partner 0.2 µg/mL	0.604
[2], first compound 0.0035 µg/mL, partner 0.21 µg/mL	0.808
[2], first compound 0.0035 µg/mL, partner 0.4 µg/mL	0.615
[2], first compound 0.0035 µg/mL, partner 0.42 µg/mL	0.666
[2], first compound 0.0035 µg/mL, partner 0.8 µg/mL	0.217
[2], first compound 0.007 µg/mL, partner 0.105 µg/mL	0.797
[2], first compound 0.007 µg/mL, partner 0.2 µg/mL	0.597
[2], first compound 0.007 µg/mL, partner 0.21 µg/mL	0.693
[2], first compound 0.007 µg/mL, partner 0.4 µg/mL	0.58
[2], first compound 0.007 µg/mL, partner 0.42 µg/mL	0.445
[2], first compound 0.007 µg/mL, partner 0.8 µg/mL	0.173
[3], first compound 0.039 µg/mL, partner 0.125 µg/mL	0.737
[3], first compound 0.039 µg/mL, partner 0.25 µg/mL	0.537
[3], first compound 0.039 µg/mL, partner 0.5 µg/mL	0.194
[3], first compound 0.078 µg/mL, partner 0.125 µg/mL	0.689
[3], first compound 0.078 µg/mL, partner 0.25 µg/mL	0.57
[3], first compound 0.078 µg/mL, partner 0.5 µg/mL	0.277
[3], first compound 0.156 µg/mL, partner 0.125 µg/mL	0.745
[3], first compound 0.156 µg/mL, partner 0.25 µg/mL	0.584
[3], first compound 0.156 µg/mL, partner 0.5 µg/mL	0.297

Settings	Bliss interaction score
[4]	0.0544
[5]	0.157
[6]	-0.0569
[7]	0.0531
